The structures appear in SMILES notation.

This is an account of results in patent US12527838B2, “Combination therapies comprising an agent that blocks the interaction between CD47 and SIRPα for treating gastric or gastroesphageal junction cancel” (ALX Oncology Inc., priority 2019, dated 2026).

For one data set, the system named is CT26 tumor cells. The data set can be described thus: CT26 syngeneic mouse colon carcinoma model. The class given is in vivo, BALB/c female mice. On the procedure:
The CT26 cells (see Wang et al. (1995) J. Immunol. 154:4685-4692) were injected into the right flank of BALB/c female mice at a concentration of 5×10^5 cells per mouse in RPMI 1640. Tumors were monitored until the average size of all tumors reached 65-70 mm^3. […] The two 30 mpk doses were given 10 days apart. […] Mice receiving both cisplatin and Drug were administered with cisplatin (IP) according to one of the regimens described above, and with Drug A as described above. In mice receiving combination treatment, Drug A was administered one day after cisplatin. Tumors were measured in two dimensions with calipers, and tumor volume was calculated as: length×width×width×0.5, where length was the larger of the two measurements.

For data set [1] the following is noted: cited from earlier work.
The target in the next data set is MCL-1 (Homo sapiens, UniProt Q07820). The following applies: selectivity profile; cited from earlier work.
Sequence of MCL-1 (Q07820 whole entry, species assumed): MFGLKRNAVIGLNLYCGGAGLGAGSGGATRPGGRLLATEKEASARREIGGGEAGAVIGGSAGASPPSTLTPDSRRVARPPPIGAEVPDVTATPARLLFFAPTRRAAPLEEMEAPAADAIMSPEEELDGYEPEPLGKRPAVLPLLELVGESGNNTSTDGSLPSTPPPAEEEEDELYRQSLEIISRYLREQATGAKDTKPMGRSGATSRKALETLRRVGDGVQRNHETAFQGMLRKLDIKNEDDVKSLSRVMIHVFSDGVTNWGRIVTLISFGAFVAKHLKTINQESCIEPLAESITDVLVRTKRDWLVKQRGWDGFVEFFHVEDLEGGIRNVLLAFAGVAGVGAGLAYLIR
For data set [2], the system named is BCL-XL-dependent cells, such as platelets. The following applies: cited from earlier work.
A further data set has as its target BCL-XL (Homo sapiens, UniProt Q07817). The settings on record: selectivity profile; cited from earlier work.
In another data set the target is T1, BFL-1 (BCL2A1/A1) (Homo sapiens, UniProt Q16548).
T1 sequence (Q16548 1-175): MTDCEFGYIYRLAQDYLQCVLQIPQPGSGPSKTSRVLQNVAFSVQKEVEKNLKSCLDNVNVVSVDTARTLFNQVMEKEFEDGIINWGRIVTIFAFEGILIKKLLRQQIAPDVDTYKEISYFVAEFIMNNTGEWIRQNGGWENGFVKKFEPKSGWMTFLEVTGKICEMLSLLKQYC
The following applies: selectivity profile; cited from earlier work.

Another data set deals with RS4;11 leukemia cells. The data set is described as follows: RS4;11 xenograft model (acute leukemia). The class given is in vivo, NOD-SCID female mice. On the procedure: The RS4;11 cells (described in Stong et al. (1985) Blood. 65(1): 21-31) was injected into the right flank of NOD-SCID female mice at a concentration of 5×10^6 cells per mouse using a 1:1 matrigel (Corning) and RPMI 1640 ratio. Tumors were monitored until the average size of all tumors reached 190 mm^3. […] The formulation for Venetoclax was a ratio of DMSO:ethanol:Cremophor EL:dextrose 5% in water (D5W) was […], by volume. Venetoclax-treated mice were dosed with 250 μg of Venetoclax by oral gavage 2 times total, 3 days apart. Drug A-treated mice were dosed IP at 10 mg/kg, 4 times total, 3-4 days apart. […] Tumors were measured in two dimensions with calipers, and tumor volume was calculated as: length×width×width×0.5, where length was the larger of the two measurements.

In another data set the test system is HL60 cells. The data set is described as follows: In vitro phagocytosis of HL60 cells by human monocyte-derived macrophages. The class given is cell-based. The following applies: 20 nM Drug A, 125 nM venetoclax; FIG. 5A.

Sequence of BCL-XL (Q07817 whole entry, species assumed): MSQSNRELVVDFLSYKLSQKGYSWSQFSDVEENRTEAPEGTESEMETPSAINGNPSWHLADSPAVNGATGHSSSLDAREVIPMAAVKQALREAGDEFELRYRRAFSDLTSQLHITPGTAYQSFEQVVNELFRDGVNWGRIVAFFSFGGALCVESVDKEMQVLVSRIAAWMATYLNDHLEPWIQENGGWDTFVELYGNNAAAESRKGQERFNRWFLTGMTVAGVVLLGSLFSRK
Experimental for HL60 cells: CD14^+ monocytes were purified by negative selection using the Classical Monocytes Isolation Kit, human (Miltenyi Biotec) and LS columns (Miltenyi Biotec) according to the manufacturer's protocol. CD14^+ monocytes were seeded into 150 mm tissue culture dishes (Corning) at 6 million cells per dish in 25 mL medium comprised of RPMI complete media, supplemented with 50 ng/mL M-CSF (Miltenyi Biotec), 10% human FBS serum (Thermo Fisher Scientific), 1% penicillin/streptomycin, and 1% GlutaMAX. Cells were cultured for seven to eleven days.
HL60 and OCI-AML3 cells were washed once in PBS and labeled with the Celltrace CFSE Cell Proliferation kit (Thermo Fisher Scientific) in suspension with 300 nM CFSE (carboxyfluorescein succinimidyl ester) according to the manufacturer's instructions and resuspended in RPMI complete media. […] Prior to incubation with macrophages, cells were resuspended in RPMI. Macrophages were detached from culture plates by washing once with PBS and incubation in TrypLE Select for 20 minutes at 37° C. Cells were removed with a cell scraper (Corning), washed in PBS, and resuspended in RPMI. […]
Briefly HL60 cells and OCI-AML3 cells (i.e., “target cells”) were labeled with CFSE (carboxyfluorescein succinimidyl ester) and treated with venetoclax for 48 hours. […] Macrophage cells were pelleted, stained, and analyzed via flow cytometry. […]

For the compound `N.N.[Cl][Pt][Cl]` [cisplatin, dichloroplatinum diammoniate], the “mice with a tumor volume<500 mm^3” value in the data set with CT26 tumor cells (cisplatin two 5 mpk doses regimen) was determined as 10%. The tumor growth entry with CT26 tumor cells (day 20, cisplatin two 5 mpk doses 10 days apart, Drug A two 30 mpk doses, FIG. 2A) was “inhibited somewhat”.
With `[NH2][Pt]1([NH2])[O]C(=O)C2(CCC2)C(=O)[O]1` [Carboplatin, platinum, diammine [1,1cyclobutane-dicarboxylato(2-)-0,0]-, (SP-4-2)], in data set [1], the aqueous solubility entry is recorded as “water-soluble”.
With `O=C(c1cc(-c2cc3c(cc2C(=O)N2Cc4ccccc4C[C@H]2CN2CCOCC2)OCO3)n2c1CCCC2)N(c1ccccc1)c1ccc(O)cc1` [Drug S55746, (S)—N-(4-hydroxyphenyl)-3-(6-(3-(morpholinomethyl)-1,2,3,4-tetrahydroisoquinoline-2-carbonyl)benzo[d][1,3]dioxol-5-yl)-N-phenyl-5,6,7,8-tetrahydroindolizine-1-carboxamide], the “binding to MCL-1” value on MCL-1 is given as “no significant binding”. Besides, the cytotoxic activity entry in data set [2] is reported as “no cytotoxic activity”. Also, at BCL-XL, the “affinity for BCL-XL” value is reported as “poor affinity”. Besides, the “binding to BFL-1 (BCL2A1/A1)” value on BFL-1 (BCL2A1/A1) was “no significant binding”.
For `CC1(C)CCC(CN2CCN(c3ccc(C(=O)NS(=O)(=O)c4ccc(NCC5CCOCC5)c([N+](=O)[O-])c4)c(Oc4cnc5[nH]ccc5c4)c3)CC2)=C(c2ccc(Cl)cc2)C1` [venetoclax, 4-(4-{[2-(4-chlorophenyl)-4,4dimethylcyclohex-1-en-1-yl]methyl}piperazin-1-yl)-N-({3-nitro-4-[(tetrahydro-2H-pyran-4ylmethyl)amino]phenyl}sulfonyl)-2-(1H-pyrrolo[2,3-b]pyridin-5-yloxy)benzamide], the average tumor volume entry in the data set on RS4;11 leukemia cells (Day 65, re-treated mice (n=5/group)) is reported as “about 1685 mm^3”. Further, in the data set on RS4;11 leukemia cells (day 41), the “tumor-free (TF) mice” value was 1 out of 10. Besides, the “tumor growth (tumor volume)” value with RS4;11 leukemia cells (venetoclax 250 μg oral gavage 2 times, Drug A 10 mg/kg IP 4 times, FIG. 1A) is listed as “inhibited tumor growth”. Besides, the “macrophage-mediated phagocytosis of HL60 cells” value in the data set with HL60 cells is recorded as “stimulated macrophage-mediated phagocytosis of HL60 cells”. Further, in data set [1], the aqueous solubility result is “very low aqueous solubility”.
